{"source": "patent US6756375B2", "about": "“10-Aryl-11h-benzo[b]fluorene derivatives and analogs for medicinal use” (Akzo Nobel N.V., priority 2000, dated 2004)", "data": [{"molecular_target": "human estrogen receptor β (hERβ) (Homo sapiens, UniProt Q92731)", "sequence (Q92731 whole entry)": "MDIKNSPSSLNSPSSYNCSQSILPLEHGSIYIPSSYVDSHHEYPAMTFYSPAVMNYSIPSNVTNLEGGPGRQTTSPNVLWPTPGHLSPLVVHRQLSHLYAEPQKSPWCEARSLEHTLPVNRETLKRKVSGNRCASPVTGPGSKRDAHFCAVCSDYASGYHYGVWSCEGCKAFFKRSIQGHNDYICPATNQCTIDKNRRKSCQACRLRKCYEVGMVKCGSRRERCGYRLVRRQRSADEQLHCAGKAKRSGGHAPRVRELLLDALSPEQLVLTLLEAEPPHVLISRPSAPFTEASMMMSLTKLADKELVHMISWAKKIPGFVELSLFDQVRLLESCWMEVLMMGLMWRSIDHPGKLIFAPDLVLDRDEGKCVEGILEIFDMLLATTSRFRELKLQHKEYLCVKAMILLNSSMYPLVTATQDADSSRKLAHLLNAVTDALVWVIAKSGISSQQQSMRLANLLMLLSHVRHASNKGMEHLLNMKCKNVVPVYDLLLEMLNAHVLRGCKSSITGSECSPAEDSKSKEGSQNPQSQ", "test": "Antiestrogenic activity in the in vitro bioassay: recombinant CHO cells co-transfected with hERβ, rat oxytocin promoter and luciferase reporter gene", "assay_type": "cell-based", "settings": "potency ratio relative to standard ICI 164.384; inhibition of estradiol-induced luciferase transactivation via hERβ in CHO cells", "method": "The estrogenic and antiestrogenic activity of compounds is determined in an in vitro bioassay with recombinant Chinese hamster ovary (CHO) cells stably co-transfected with the human estrogen receptor α (hERα) or β receptor (hERβ), the rat oxytocin promoter (RO) and the luciferase reporter gene (LUC). The estrogenic activity (potency ratio) of a test compound to stimulate the transactivation of the enzyme luciferase mediated via the estrogen receptors hERα or hERβ is compared with the standard estrogen estradiol. The antiestrogenic activity (potency ratio) of a test compound to inhibit the transactivation of the enzyme luciferase mediated via the estrogen receptors hERα or hERβ by the estrogen estradiol is compared with the standard ICI 164.384 (=(7α,17β)-N-butyl-3,17-dihydroxy-N-methylestra-1,3,5(10)-triene-7-undecanamide).", "values": [{"compound": "Oc1ccc2c(c1)Cc1c-2cc2ccc(O)cc2c1-c1ccc(Cl)cc1", "note": "[Compound 5a]", "ERβ antagonism": "+ (5 > 5% (relative to ICI): +)"}, {"compound": "Oc1ccc2c(c1)Cc1c-2cc2ccc(O)cc2c1-c1ccc2c(c1)OCO2", "note": "[Compound 5g]", "ERβ antagonism": "+ (5 > 5% (relative to ICI): +)"}, {"compound": "Cc1cccc(-c2c3c(cc4ccc(O)cc24)-c2ccc(O)cc2C3)c1", "note": "[Compound 5p]", "ERβ antagonism": "+ (5 > 5% (relative to ICI): +)"}, {"compound": "Oc1ccc2c(c1)Cc1c-2cc2ccc(O)cc2c1-c1ccc(Cl)c(Cl)c1", "note": "[Compound 5m]", "ERβ antagonism": "++ (> 40%: ++)"}, {"compound": "Oc1ccc2c(c1)Cc1c-2cc2ccc(O)cc2c1-c1ccc(F)cc1", "note": "[Compound 5l]", "ERβ antagonism": "++ (> 40%: ++)"}, {"compound": "Oc1ccc2c(c1)Cc1c-2cc2ccc(O)cc2c1-c1ccc(-c2ccccc2)cc1", "note": "[Compound 5h]", "ERβ antagonism": "+ (5 > 5% (relative to ICI): +)"}, {"compound": "Oc1ccc2c(c1)Cc1c-2cc2ccc(O)cc2c1-c1cccc(F)c1", "note": "[Compound 5j]", "ERβ antagonism": "+ (5 > 5% (relative to ICI): +)"}, {"compound": "Oc1ccc2c(c1)Cc1c-2cc2ccc(O)cc2c1-c1ccc(OC(F)(F)F)cc1", "note": "[Compound 5r]", "ERβ antagonism": "++ (> 40%: ++)"}, {"compound": "CC(C)c1cccc(-c2c3c(cc4ccc(O)cc24)-c2ccc(O)cc2C3)c1", "note": "[Compound 5q]", "ERβ antagonism": "+ (5 > 5% (relative to ICI): +)"}, {"compound": "COc1cccc(-c2c3c(cc4ccc(O)cc24)-c2ccc(O)cc2C3)c1", "note": "[Compound 5c]", "ERβ antagonism": "+ (5 > 5% (relative to ICI): +)"}, {"compound": "Oc1ccc2c(c1)Cc1c-2cc2ccc(O)cc2c1-c1ccc(-c2ccccc2)c(F)c1", "note": "[Compound 5s]", "ERβ antagonism": "+ (5 > 5% (relative to ICI): +)"}, {"compound": "COc1ccc(-c2c3c(cc4ccc(O)cc24)-c2ccc(O)cc2C3)cc1", "note": "[Compound 5k]", "ERβ antagonism": "+ (5 > 5% (relative to ICI): +)"}, {"compound": "Oc1ccc2c(c1)Cc1c-2cc2ccc(O)cc2c1-c1ccccc1", "note": "[Compound 5v]", "ERβ antagonism": "+ (5 > 5% (relative to ICI): +)"}, {"compound": "Oc1ccc2c(c1)Cc1c-2cc2ccc(O)cc2c1-c1ccc(OCCN2CCCCC2)cc1", "note": "[Compound 9]", "ERβ antagonism": "++ (> 40%: ++)"}, {"compound": "Oc1ccc2c(c1)Cc1c-2cc2ccc(O)cc2c1-c1ccccc1C(F)(F)F", "note": "[Compound 5u]", "ERβ antagonism": "++ (> 40%: ++)"}, {"compound": "Cc1ccc(-c2c3c(cc4ccc(O)cc24)-c2ccc(O)cc2C3)cc1", "note": "[Compound 5e]", "ERβ antagonism": "++ (> 40%: ++)"}, {"compound": "Oc1ccc2c(c1)Cc1c-2cc2ccc(O)cc2c1-c1cccc(C(F)(F)F)c1", "note": "[Compound 5d]", "ERβ antagonism": "+ (5 > 5% (relative to ICI): +)"}, {"compound": "Oc1ccc2c(c1)Cc1c-2cc2ccc(O)cc2c1-c1ccc(F)c(Cl)c1", "note": "[Compound 5f]", "ERβ antagonism": "+ (5 > 5% (relative to ICI): +)"}, {"compound": "Oc1ccc2c(c1)Cc1c-2cc2ccc(O)cc2c1-c1ccc2ccccc2c1", "note": "[Compound 5b]", "ERβ antagonism": "+ (5 > 5% (relative to ICI): +)"}, {"compound": "Oc1ccc2c(c1)Cc1c-2cc2ccc(O)cc2c1-c1ccc(C(F)(F)F)cc1", "note": "[Compound 5o]", "ERβ antagonism": "+ (5 > 5% (relative to ICI): +)"}, {"compound": "Oc1ccc2c(c1)Cc1c-2cc2ccc(O)cc2c1-c1cccc(Cl)c1", "note": "[Compound 5n]", "ERβ antagonism": "+ (5 > 5% (relative to ICI): +)"}]}]}
